{"source": "patent US20120082658A1", "about": "“Methods for the Treatment of Allergic Diseases” (VentiRx Pharmaceuticals, Inc., priority 2010, published 2012)", "system": "human peripheral blood mononuclear cells (PBMCs)", "assay": "Cytokine production in isolated human PBMCs", "assay_type": "cell-based", "settings": "for EC50: Homo sapiens, PBMC", "description": "Preclinical studies were performed with VTX-378, the active pharmaceutical ingredient in VTX-1463. The specificity of VTX-378 for human TLR8 relative to other TLRs was assessed in transfected Human Embryonic Kidney 293 (HEK293) cells engineered to express individual TLRs (2-9) via transfection, and assessed using an NF-κB driven reporter system. […] The pharmacologic effects of VTX-378 were characterized in vitro using isolated human peripheral blood mononuclear cells (PBMCs).", "note": "Read-outs that look alike come from different tables or passages of the source.", "data": [{"molecule": "CC(C)Cn1cnc2c(N)nc3ccccc3c21", "note": "[Imiquimod, imiquimod, reference compound]", "values": [{"measurement": "EC50", "setting": "analyte IL-10, read-out: EC50, IL-10 production", "value": 17, "unit": "µM"}, {"measurement": "EC50", "setting": "analyte IL-12p40, read-out: EC50, IL-12p40 production", "value": 0.27, "unit": "µM"}, {"measurement": "Mean Mediator Level ± SEM, IL-10", "setting": "Imiquimod 25 uM", "value": "59 ± 24", "unit": "pg/mL"}, {"measurement": "Mean Mediator Level ± SEM, IL-12p40", "setting": "Imiquimod 25 uM", "value": "10.2 ± 3.5", "unit": "pg/mL"}, {"measurement": "Mean Mediator Level ± SEM, IL-12p70", "setting": "Imiquimod 25 uM", "value": "0.6 ± 0.6", "unit": "pg/mL"}]}]}
